Data as given in patent publication US20240409585A1, “MACROCYCLIC IMMUNOMODULATORS” (priority 2021, published 2024).
Where two headings read alike, the source gives them in different places. Numbered stars: 1 amine (or outer) side, 2 acyl side, 3 side chain; on linkers, the order of the positions; unused ones are H or OH. Bridge positions count the residues as written; N and C are the ends. Square brackets hold non-standard residues; d marks the D form. Peptide text beside a SMILES is read from it. * marks the point of attachment. ξ: configuration not given here. Ala(4-isoquinolinyl) = N[C@@H](Cc1cncc2ccccc12)C(=O)O; Phe(4-COOH) = N[C@@H](Cc1ccc(C(=O)O)cc1)C(=O)O; Bip = N[C@@H](Cc1ccc(-c2ccccc2)cc1)C(=O)O; Phe(3-Me) = Cc1cccc(C[C@H](N)C(=O)O)c1; βAsp = O=C(O)[C@H](CC(=O)[*:2])N[*:1]; Val(3-OH) = CC(C)(O)[C@H](N)C(=O)O; 4Pal = N[C@@H](Cc1ccncc1)C(=O)O; Cha = N[C@@H](CC1CCCCC1)C(=O)O; Cit = NC(=O)NCCC[C@H](N)C(=O)O; Pip = O=C(O)[C@@H]1CCCCN1; Carboxymethyl = O=C(O)C*; NMeA = CN[C@@H](C)C(=O)O; Orn = NCCC[C@H](N)C(=O)O; Pra = C#CC[C@H](N)C(=O)O; Dab = NCC[C@H](N)C(=O)O; Dap = NC[C@H](N)C(=O)O; ξC = NC(CS)C(=O)O; Acm = CC(=O)NC*

Target: T1, PE-labeled human PD-L1-Ig binding to Jurkat cell line over-expressing human PD-1 (Jurkat-PD-1) (Homo sapiens, UniProt Q15116)
T1 construct: expressed in transfected cells; host or cells: Jurkat
T1 sequence (Q15116 25-288): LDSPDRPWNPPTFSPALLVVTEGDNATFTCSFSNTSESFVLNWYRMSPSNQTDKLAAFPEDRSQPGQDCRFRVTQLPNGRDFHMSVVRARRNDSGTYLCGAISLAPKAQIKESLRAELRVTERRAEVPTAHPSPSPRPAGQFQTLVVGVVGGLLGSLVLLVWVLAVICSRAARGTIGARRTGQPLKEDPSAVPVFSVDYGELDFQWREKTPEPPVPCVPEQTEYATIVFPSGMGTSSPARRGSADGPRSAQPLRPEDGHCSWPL
Experiment: Jurkat-PD-1 Cell Binding High-Content Screening Assay (CBA): Method 1
Conditions: Jurkat-hPD-1 cells, PE-labeled PD-L1-Ig 20 nM final

[1] = read-out: Jurkat HPDL1 PD1 IC50 (uM) (Method 1)

Row | Structure (SMILES) | IC50 [1] [µM] | IC50 (Jurkat HPDL1 PD1 IC50 (Method 1), cells printed in nM, unit nM) [µM]
1 | Cc1cccc(C[C@@H]2NC(=O)[C@H](CC(=O)O)NC(=O)[C@H](Cc3ccc(C(=O)O)cc3)NC(=O)[C@H](Cc3ccncc3)NC(=O)CSC[C@@H](C(=O)N[C@@H](CO)C(N)=O)NC(=O)[C@H](CCC(=O)O)NC(=O)[C@H](C(C)(C)O)NC(=O)[C@H](CC3CCCCC3)NC(=O)[C@H](CCN)NC(=O)[C@@H](CC(C)C)NC(=O)[C@H](C)N(C)C(=O)[C@H](Cc3ccc(OCC(=O)O)cc3)NC(=O)[C@H](Cc3ccc(-c4ccccc4)cc3)NC(=O)[C@H](Cc3ccc(OCC(=O)O)cc3)NC2=O)c1 [Compound 2194] ({CH2CO}-[4Pal][Phe(4-COOH)]D[Phe(3-Me)]Y(Carboxymethyl)[Bip]Y(Carboxymethyl)[NMeA][dL][Dab][Cha][Val(3-OH)]ECS-NH2; thioether N-14) | 0.26 | 
2 | CC(=O)NCSC[C@@H]1NC(=O)[C@H](CC(C)C)NC(=O)[C@H](CC(N)=O)NC(=O)[C@@H](CC(C)C)NC(=O)[C@H](C)N(C)C(=O)[C@H](CSCNC(C)=O)NC(=O)[C@H](Cc2ccc(-c3ccccc3)cc2)NC(=O)[C@H](CC(C)C)NC(=O)[C@H](Cc2cccc(C)c2)NC(=O)[C@H](CC(=O)O)NC(=O)[C@H](Cc2ccncc2)NC(=O)[C@H](Cc2ccc(OCC(=O)O)cc2)NC(=O)CSCC(C(=O)NCC(N)=O)NC(=O)[C@H](CO)NC1=O (stereo partly drawn) [Compound 1886] ({CH2CO}-Y(Carboxymethyl)[4Pal]D[Phe(3-Me)]L[Bip]C(Acm)[NMeA][dL]NLC(Acm)S[ξC]G-NH2; thioether N-14) | 0.14 | 
3 | CC(C)C[C@@H]1NC(=O)[C@H](CCN)NC(=O)[C@@H](CC(C)C)NC(=O)[C@H](C)N(C)C(=O)[C@H](C(C)C)NC(=O)[C@H](Cc2ccc(-c3ccccc3)cc2)NC(=O)[C@H](C(C)C)NC(=O)[C@H](Cc2c[nH]c3ccccc23)NC(=O)[C@H](CC(=O)O)NC(=O)[C@H](Cc2ccc(C(=O)O)cc2)NC(=O)[C@H](CN)NC(=O)CSC[C@@H](C(=O)N[C@@H](C)C(N)=O)NC(=O)[C@H]([C@@H](C)O)NC(=O)[C@H](C(C)C)NC1=O [Compound 1416] ({CH2CO}-[Dap][Phe(4-COOH)]DWV[Bip]V[NMeA][dL][Dab]LVTCA-NH2; thioether N-14) |  | 0.0047
4 | Cc1cccc(C[C@@H]2NC(=O)[C@H](CC(=O)O)NC(=O)[C@H](Cc3ccc(OCC(=O)O)cc3)NC(=O)[C@H](CN)NC(=O)CSC[C@@H](C(N)=O)NC(=O)[C@H](CC(=O)O)NC(=O)[C@H](C(C)C)NC(=O)[C@H](CC3CCCCC3)NC(=O)[C@H](CCN)NC(=O)[C@@H](CC(C)C)NC(=O)[C@@H]3CCCCN3C(=O)[C@H](Cc3ccc(OCC(=O)O)cc3)NC(=O)[C@H](Cc3ccc(-c4ccccc4)cc3)NC(=O)[C@H](Cc3ccc(OCC(=O)O)cc3)NC2=O)c1 [Compound 1893] ({CH2CO}-[Dap]Y(Carboxymethyl)D[Phe(3-Me)]Y(Carboxymethyl)[Bip]Y(Carboxymethyl)[Pip][dL][Dab][Cha]VDC-NH2; thioether N-14) | 0.26 | 
5 | CC(C)C[C@@H]1NC(=O)[C@H](CCN)NC(=O)[C@@H](CC(C)C)NC(=O)[C@H](C)N(C)C(=O)[C@H](Cc2cnc[nH]2)NC(=O)[C@H](Cc2ccc(-c3ccccc3)cc2)NC(=O)[C@H](C(C)C)NC(=O)[C@H](Cc2c[nH]c3ccccc23)NC(=O)[C@H](CC(=O)O)NC(=O)[C@H](Cc2ccc(OCC(=O)O)cc2)NC(=O)[C@H](CN)NC(=O)CSC[C@@H](C(=O)N[C@@H](C)C(N)=O)NC(=O)[C@H]([C@@H](C)O)NC(=O)[C@H](C(C)C)NC1=O [Compound 1438] ({CH2CO}-[Dap]Y(Carboxymethyl)DWV[Bip]H[NMeA][dL][Dab]LVTCA-NH2; thioether N-14) | 0.07 | 
6 | C#CC[C@H](NC(=O)C[C@H](NC(=O)[C@@H]1CSCC(=O)N[C@@H](Cc2ccc(OCC(=O)O)cc2)C(=O)N[C@@H](Cc2ccncc2)C(=O)N[C@@H](CC(=O)O)C(=O)N[C@@H](Cc2c[nH]c3ccccc23)C(=O)N[C@@H](CC(C)C)C(=O)N[C@@H](Cc2ccc(-c3ccccc3)cc2)C(=O)N[C@@H](C(C)C)C(=O)N(C)[C@@H](C)C(=O)N[C@H](CC(C)C)C(=O)N[C@@H](CCN)C(=O)N[C@@H](CC2CCCCC2)C(=O)N[C@@H](C(C)C)C(=O)N[C@@H](CO)C(=O)N1)C(=O)O)C(N)=O [Compound 1645] ({CH2CO}-Y(Carboxymethyl)[4Pal]DWL[Bip]V[NMeA][dL][Dab][Cha]VSC[βAsp][Pra]-NH2; thioether N-14) | 0.01 | 
7 | Cc1cccc(C[C@@H]2NC(=O)[C@H](CC(=O)O)NC(=O)[C@H](Cc3ccc(O)cc3)NC(=O)[C@H](CC(N)=O)NC(=O)CSC[C@@H](C(=O)N[C@@H](CCN)C(N)=O)NC(=O)[C@H]([C@@H](C)O)NC(=O)[C@H](C(C)C)NC(=O)[C@H](CC3CCCCC3)NC(=O)[C@H](CCN)NC(=O)[C@@H](CC(C)C)NC(=O)[C@H](C)N(C)C(=O)[C@H](CCCNC(N)=O)NC(=O)[C@H](Cc3ccc(-c4ccccc4)cc3)NC(=O)[C@H](C(C)(C)O)NC2=O)c1 [Compound 1703] ({CH2CO}-NYD[Phe(3-Me)][Val(3-OH)][Bip][Cit][NMeA][dL][Dab][Cha]VTC[Dab]-NH2; thioether N-14) | 0.02 | 

Further lines, with some results ahead:

Row | IC50 [1] [µM] | Structure (SMILES) | IC50 (Jurkat HPDL1 PD1 IC50 (Method 1), cells printed in nM, unit nM) [µM]
8 | 0.36 | CC(C)C[C@@H]1NC(=O)[C@H](CCCNC(=N)N)NC(=O)[C@@H](CC(N)=O)NC(=O)[C@H](C)N(C)C(=O)[C@H](CCCNC(=N)N)NC(=O)[C@H](Cc2ccc(-c3ccccc3)cc2)NC(=O)[C@H](C(C)C)NC(=O)[C@H](Cc2c[nH]c3ccccc23)NC(=O)[C@H](CC(=O)O)NC(=O)[C@H](Cc2ccc(O)cc2)NC(=O)[C@H](Cc2ccccc2)NC(=O)CSC[C@@H](C(=O)NCC(N)=O)NC(=O)[C@H](CO)NC(=O)[C@H](C(C)C)NC1=O [Compound 1019] ({CH2CO}-FYDWV[Bip]R[NMeA][dN]RLVSCG-NH2; thioether N-14) | 
9 | 0.63 | CC(C)C[C@@H]1NC(=O)[C@H](Cc2c[nH]c3ccccc23)NC(=O)[C@H](CC(=O)O)NC(=O)[C@H](Cc2ccc(O)cc2)NC(=O)[C@H](Cc2ccccc2)NC(=O)CSC[C@@H](C(=O)NCC(N)=O)NC(=O)[C@H](CO)NC(=O)[C@H](C(C)C)NC(=O)[C@H](CC(C)C)NC(=O)[C@H](CC(=O)O)NC(=O)[C@H](CC(C)C)NC(=O)[C@H](C)N(C)C(=O)[C@H](C(C)C)NC(=O)[C@H](Cc2ccc(-c3ccccc3)cc2)NC1=O [Compound 1824] ({CH2CO}-FYDWL[Bip]V[NMeA]LDLVSCG-NH2; thioether N-14) | 
10 | 0.02 | CC(C)C[C@H]1NC(=O)[C@H](C)N(C)C(=O)[C@H](CCCNC(N)=O)NC(=O)[C@H](Cc2ccc(-c3ccccc3)cc2)NC(=O)[C@H](C(C)C)NC(=O)[C@H](Cc2c[nH]c3ccccc23)NC(=O)[C@H](CC(=O)O)NC(=O)[C@H](Cc2ccc(O)cc2)NC(=O)[C@H](Cc2ccc(OCC(=O)O)cc2)NC(=O)CSC[C@@H](C(=O)N[C@@H](C)C(N)=O)NC(=O)[C@H]([C@@H](C)O)NC(=O)[C@H](C(C)C)NC(=O)[C@H](CC2CCCCC2)NC(=O)[C@H](CCCNC(=N)N)NC1=O [Compound 1504] ({CH2CO}-Y(Carboxymethyl)YDWV[Bip][Cit][NMeA][dL]R[Cha]VTCA-NH2; thioether N-14) | 
11 | 0.13 | CC(C)C[C@@H]1NC(=O)[C@H](Cc2c[nH]c3ccccc23)NC(=O)[C@H](CC(N)=O)NC(=O)[C@H](Cc2ccc(O)cc2)NC(=O)[C@H](Cc2ccccc2)NC(=O)CSC[C@@H](C(=O)N[C@@H](C)C(N)=O)NC(=O)[C@H](CO)NC(=O)[C@H](C(C)C)NC(=O)[C@H](CC(C)C)NC(=O)[C@H](CC(N)=O)NC(=O)[C@@H](C)NC(=O)[C@H](C)N(C)C(=O)[C@H](C(C)C)NC(=O)[C@H](Cc2ccc(-c3ccccc3)cc2)NC1=O [Compound 1791] ({CH2CO}-FYNWL[Bip]V[NMeA][dA]NLVSCA-NH2; thioether N-14) | 
12 | 0.15 | CC(C)C[C@@H]1NC(=O)[C@H](Cc2c[nH]c3ccccc23)NC(=O)[C@H](CC(=O)O)NC(=O)[C@H](Cc2ccc(O)cc2)NC(=O)[C@H](Cc2ccccc2)NC(=O)CSC[C@@H](C(=O)N[C@@H](C)C(N)=O)NC(=O)[C@H]([C@@H](C)O)NC(=O)[C@H](CCCN)NC(=O)[C@H](CC(C)C)NC(=O)[C@H](CC(N)=O)NC(=O)[C@@H](C)NC(=O)[C@H](C)N(C)C(=O)[C@H](C(C)C)NC(=O)[C@H](Cc2ccc(-c3ccccc3)cc2)NC1=O [Compound 1533] ({CH2CO}-FYDWL[Bip]V[NMeA][dA]NL[Orn]TCA-NH2; thioether N-14) | 
13 | 0.49 | CC(C)C[C@@H]1NC(=O)[C@H](CCN)NC(=O)[C@@H](CC(C)C)NC(=O)[C@H](C)N(C)C(=O)[C@H](CCCNC(=N)N)NC(=O)[C@H](Cc2ccc(-c3ccccc3)cc2)NC(=O)[C@H](C(C)C)NC(=O)[C@H](Cc2cncc3ccccc23)NC(=O)[C@H](CC(=O)O)NC(=O)[C@H](Cc2ccc(O)cc2)NC(=O)[C@H](Cc2ccccc2)NC(=O)CSC[C@@H](C(=O)N[C@@H](C)C(N)=O)NC(=O)[C@H]([C@@H](C)O)NC(=O)[C@H](C(C)C)NC1=O [Compound 1200] ({CH2CO}-FYD[Ala(4-isoquinolinyl)]V[Bip]R[NMeA][dL][Dab]LVTCA-NH2; thioether N-14) | 
14 | 0.53 | COc1ccc(C[C@H]2NC(=O)[C@H](C)N(C)C(=O)[C@H](CCCNC(=N)N)NC(=O)[C@H](Cc3ccc(-c4ccccc4)cc3)NC(=O)[C@H](C(C)C)NC(=O)[C@H](Cc3c[nH]c4ccccc34)NC(=O)[C@H](CC(=O)O)NC(=O)[C@H](Cc3ccc(O)cc3)NC(=O)[C@H](Cc3ccccc3)NC(=O)CSC[C@@H](C(=O)N[C@@H](C)C(N)=O)NC(=O)[C@H]([C@@H](C)O)NC(=O)[C@H](C(C)C)NC(=O)[C@H](CC(C)C)NC(=O)[C@H](CCCNC(=N)N)NC2=O)cc1 [Compound 1108] ({CH2CO}-FYDWV[Bip]R[NMeA][dY](Me)RLVTCA-NH2; thioether N-14) | 
